# Experimental data published in paper PMC9120017, “Inhibition mechanism of the chloride channel TMEM16A by the pore blocker 1PBC” (Nature Communications, 2022).
# Like-named read-outs stand apart in the source and are kept apart here.
# Target: T1, mouse TMEM16A mutant S517A (Mus musculus, UniProt Q8BHY3, S517A)
# T1 construct: expressed in transfected cells; host or cells: HEK293T
# T1 sequence (Q8BHY3 1-960 S517A): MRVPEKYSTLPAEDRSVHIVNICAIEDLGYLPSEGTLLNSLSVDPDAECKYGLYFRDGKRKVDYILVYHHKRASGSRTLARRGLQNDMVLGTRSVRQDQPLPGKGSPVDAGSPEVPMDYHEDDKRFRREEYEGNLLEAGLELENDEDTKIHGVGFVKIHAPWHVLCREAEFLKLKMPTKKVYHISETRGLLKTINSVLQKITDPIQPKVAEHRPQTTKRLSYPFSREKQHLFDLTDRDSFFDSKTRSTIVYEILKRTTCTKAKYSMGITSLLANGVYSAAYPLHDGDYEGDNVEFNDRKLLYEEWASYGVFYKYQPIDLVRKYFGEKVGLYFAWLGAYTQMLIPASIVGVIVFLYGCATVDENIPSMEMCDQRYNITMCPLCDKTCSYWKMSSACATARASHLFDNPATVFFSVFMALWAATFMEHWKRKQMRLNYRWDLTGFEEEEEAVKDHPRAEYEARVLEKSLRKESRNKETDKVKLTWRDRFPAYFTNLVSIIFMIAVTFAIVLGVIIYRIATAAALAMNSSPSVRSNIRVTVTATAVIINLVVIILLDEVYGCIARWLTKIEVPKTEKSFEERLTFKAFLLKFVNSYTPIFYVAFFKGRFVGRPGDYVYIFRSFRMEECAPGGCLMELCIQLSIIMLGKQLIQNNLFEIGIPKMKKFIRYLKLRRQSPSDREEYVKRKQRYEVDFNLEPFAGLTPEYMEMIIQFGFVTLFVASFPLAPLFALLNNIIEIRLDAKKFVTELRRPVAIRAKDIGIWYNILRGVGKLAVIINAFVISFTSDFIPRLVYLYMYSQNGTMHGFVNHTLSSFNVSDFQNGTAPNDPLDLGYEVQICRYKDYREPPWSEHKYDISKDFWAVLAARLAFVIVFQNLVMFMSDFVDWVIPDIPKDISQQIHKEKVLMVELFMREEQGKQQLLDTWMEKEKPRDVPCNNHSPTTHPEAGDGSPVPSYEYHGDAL
# Experiment: Inside-out patch recording of 1PBC block, mutant S517A
# Type: cell-based
# Details: for remaining activity at 1 µM: 1PBC 1; for remaining activity at 1 µM / remaining activity at 3 µM / remaining activity at 10 µM / remaining activity at 30 µM / remaining activity at 100 µM: read-out: fraction of unblocked current; for remaining activity at 3 µM: 1PBC 3; for remaining activity at 10 µM: 1PBC 10; for remaining activity at 30 µM: 1PBC 30; for remaining activity at 100 µM: 1PBC 100
# Protocol: HEK293T cells (ATCC CRL-1573) were maintained in Dulbecco’s modified Eagle’s medium (DMEM; Sigma-Aldrich) supplemented with 10 U ml^−1 penicillin, 0.1 mg ml^−1 streptomycin (Sigma-Aldrich), 2 mM L-glutamine (Sigma-Aldrich), and 10% FBS (Sigma-Aldrich) in a humidified atmosphere containing 5% CO2 at 37 °C. HEK293S GnTI^− cells (ATCC CRL-3022) were maintained in HyClone HyCell TransFx-H medium (GE Healthcare) supplemented with 10 U ml^−1 penicillin, 0.1 mg ml^−1 streptomycin, 4 mM L-glutamine, 0.15% poloxamer 188 (Sigma-Aldrich), and 1% FBS in an atmosphere containing 5% CO2 at 185 rpm at 37 °C. The ac splice variant of mouse TMEM16A (UniProt ID: Q8BHY3), mouse TMEM16B (UniProt ID: Q8CFW1), or mouse TMEM16F (UniProt ID: Q6P9J9) bearing a 3C cleavage site, a Venus YFP, a Myc tag, and a Streptavidin-binding peptide (SBP) downstream of the open reading frame in a modified pcDNA3.1 vector (Invitrogen) were used as described previously[21],[31]. Mutations were introduced using a modified QuikChange method[58] and were verified by sequencing.
# HEK293T cells were transfected with 3–4 μg DNA per 6 cm Petri dish using the calcium phosphate co-precipitation method and were used within 24–96 h after transfection. Recordings were performed on inside-out patches excised from HEK293T cells expressing the construct of interest. Patch pipettes were pulled from borosilicate glass capillaries (O.D. 1.5 mm, I.D. 0.86 mm, Sutter Instrument) and were fire-polished with a microforge (Narishige) before use. Pipette resistance was typically 3–8 MΩ when filled with the recording solutions detailed below. Seal resistance was typically 4 GΩ or higher. Voltage-clamp recordings were made using Axopatch 200B, Digidata 1550, and Clampex 10.7 (Molecular Devices). Analog signals were filtered with the in-built 4-pole Bessel filter at 10 kHz and were digitized at 20 kHz. Solution exchange was achieved using a gravity-fed system through a theta glass pipette mounted on an ultra-fast piezo-driven stepper (Siskiyou). […] All recordings were performed at 20 °C.
# A symmetrical ionic condition was used throughout. Stock solution with Ca^2+-EGTA contained 150 mM NaCl, 5.99 mM Ca(OH)2, 5 mM EGTA, and 10 mM HEPES at pH 7.40. Stock solution with EGTA contained 150 mM NaCl, 5 mM EGTA, and 10 mM HEPES at pH 7.40. Free Ca^2+ concentrations were adjusted by mixing the stock solutions at the required ratios calculated using the WEBMAXC program (http://web.stanford.edu/~cpatton/webmaxcS.htm). Patch pipettes were filled with the stock solution with Ca^2+-EGTA, which has a free Ca^2+ concentration of 1 mM. 1PBC (ChemBridge) stock was reconstituted in anhydrous DMSO (Sigma-Aldrich) at 100 mM and stored at −20 °C. Working solutions with 1PBC were prepared by serial dilution. Unless otherwise stated, experiments were performed at a saturating Ca^2+ concentration as shown in Supplementary Table 1 and the primary data were corrected for current rundown as described previously[21],[25].
# Concentration-response relations, obtained from the ratio of the I-V plots before and after the application of the blocker, were fitted to the Hill equation,1 I/Imax=1/1+IC50/[blocker]^h where I/Imax is the normalized current responses, IC50 defines the concentration at which inhibition is at its half-maximum, and h is the Hill coefficient.
compound,measurement,setting,value
N#Cc1c(C(F)(F)F)cc(O)n2c1nc1ccccc12 [1PBC],IC50,"0 mV, 2 µM Ca2+",4.87 µM
same,remaining activity at 1 µM,0 mV,80.6%
same,remaining activity at 1 µM,20 mV,76.4%
same,remaining activity at 1 µM,40 mV,72.2%
same,remaining activity at 1 µM,60 mV,68.1%
same,remaining activity at 1 µM,80 mV,65.8%
same,remaining activity at 1 µM,100 mV,66.4%
same,remaining activity at 1 µM,120 mV,68.4%
same,remaining activity at 1 µM,140 mV,72%
same,remaining activity at 1 µM,-20 mV,84.8%
same,remaining activity at 1 µM,-40 mV,89.1%
same,remaining activity at 1 µM,-60 mV,92.3%
same,remaining activity at 1 µM,-80 mV,93.4%
same,remaining activity at 1 µM,-100 mV,95%
same,remaining activity at 1 µM,-120 mV,95.3%
same,remaining activity at 1 µM,-140 mV,96.6%
same,remaining activity at 3 µM,0 mV,62.1%
same,remaining activity at 3 µM,20 mV,56.5%
same,remaining activity at 3 µM,40 mV,50.9%
same,remaining activity at 3 µM,60 mV,46.8%
same,remaining activity at 3 µM,80 mV,43.5%
same,remaining activity at 3 µM,100 mV,42.4%
same,remaining activity at 3 µM,120 mV,44.1%
same,remaining activity at 3 µM,140 mV,49.1%
same,remaining activity at 3 µM,-20 mV,67.7%
same,remaining activity at 3 µM,-40 mV,73.3%
same,remaining activity at 3 µM,-60 mV,77.2%
same,remaining activity at 3 µM,-80 mV,82.9%
same,remaining activity at 3 µM,-100 mV,86.4%
same,remaining activity at 3 µM,-120 mV,88.8%
same,remaining activity at 3 µM,-140 mV,90.8%
same,remaining activity at 10 µM,0 mV,33.3%
same,remaining activity at 10 µM,20 mV,28.2%
same,remaining activity at 10 µM,40 mV,24.2%
same,remaining activity at 10 µM,60 mV,21.4%
same,remaining activity at 10 µM,80 mV,19.4%
same,remaining activity at 10 µM,100 mV,17.8%
same,remaining activity at 10 µM,120 mV,18.2%
same,remaining activity at 10 µM,140 mV,20.6%
same,remaining activity at 10 µM,-20 mV,38.5%
same,remaining activity at 10 µM,-40 mV,44.6%
same,remaining activity at 10 µM,-60 mV,50%
same,remaining activity at 10 µM,-80 mV,54.7%
same,remaining activity at 10 µM,-100 mV,59.2%
same,remaining activity at 10 µM,-120 mV,64.2%
same,remaining activity at 10 µM,-140 mV,67.7%
same,remaining activity at 30 µM,0 mV,14.7%
same,remaining activity at 30 µM,20 mV,12%
same,remaining activity at 30 µM,40 mV,10.1%
same,remaining activity at 30 µM,60 mV,9.12%
same,remaining activity at 30 µM,80 mV,8.68%
same,remaining activity at 30 µM,100 mV,8.48%
same,remaining activity at 30 µM,120 mV,8.95%
same,remaining activity at 30 µM,140 mV,10.1%
same,remaining activity at 30 µM,-20 mV,17.4%
same,remaining activity at 30 µM,-40 mV,20.4%
same,remaining activity at 30 µM,-60 mV,25.6%
same,remaining activity at 30 µM,-80 mV,29.2%
same,remaining activity at 30 µM,-100 mV,33.1%
same,remaining activity at 30 µM,-120 mV,36.2%
same,remaining activity at 30 µM,-140 mV,39.2%
same,remaining activity at 100 µM,0 mV,6.16%
same,remaining activity at 100 µM,20 mV,4.78%
same,remaining activity at 100 µM,40 mV,4.43%
same,remaining activity at 100 µM,60 mV,4.02%
same,remaining activity at 100 µM,80 mV,3.86%
same,remaining activity at 100 µM,100 mV,3.89%
same,remaining activity at 100 µM,120 mV,3.95%
same,remaining activity at 100 µM,140 mV,4.21%
same,remaining activity at 100 µM,-20 mV,7.53%
same,remaining activity at 100 µM,-40 mV,8.84%
same,remaining activity at 100 µM,-60 mV,10.3%
same,remaining activity at 100 µM,-80 mV,12.6%
same,remaining activity at 100 µM,-100 mV,14.7%
same,remaining activity at 100 µM,-120 mV,17.1%
same,remaining activity at 100 µM,-140 mV,19.8%
same,IC50,"20 mV, 2 µM Ca2+",3.78 µM
same,IC50,"40 mV, 2 µM Ca2+",3.01 µM
same,IC50,"60 mV, 2 µM Ca2+",2.51 µM
same,log-fold IC50 (change of mutant vs WT),80 mV,0.0426
same,IC50,"80 mV, 2 µM Ca2+",2.2 µM
same,IC50,"100 mV, 2 µM Ca2+",2.14 µM
same,IC50,"120 mV, 2 µM Ca2+",2.29 µM
same,IC50,"140 mV, 2 µM Ca2+",2.76 µM
same,IC50,"-20 mV, 2 µM Ca2+",6.24 µM
same,IC50,"-40 mV, 2 µM Ca2+",8.08 µM
same,IC50,"-60 mV, 2 µM Ca2+",10.3 µM
same,IC50,"-80 mV, 2 µM Ca2+",12.8 µM
same,IC50,"-100 mV, 2 µM Ca2+",15.5 µM
same,IC50,"-120 mV, 2 µM Ca2+",18.4 µM
same,IC50,"-140 mV, 2 µM Ca2+",21.4 µM
same,IC50,"S517A, V 0 mV",4.87 µM
same,IC50,"S517A, V 20 mV",3.78 µM
same,IC50,"S517A, V 40 mV",3.01 µM
same,IC50,"S517A, V 60 mV",2.51 µM
same,IC50,"S517A, V 80 mV",2.2 µM
same,IC50,"S517A, V 100 mV",2.14 µM
same,IC50,"S517A, V 120 mV",2.29 µM
same,IC50,"S517A, V 140 mV",2.76 µM
same,IC50,"S517A, V -20 mV",6.24 µM
same,IC50,"S517A, V -40 mV",8.08 µM
same,IC50,"S517A, V -60 mV",10.3 µM
same,IC50,"S517A, V -80 mV",12.8 µM
same,IC50,"S517A, V -100 mV",15.5 µM
same,IC50,"S517A, V -120 mV",18.4 µM
same,IC50,"S517A, V -140 mV",21.4 µM
